Read-outs that look alike come from different tables or passages of the source.
What was measured:
PPAR-gamma = molecular target: T1, PPAR-gamma (Homo sapiens, UniProt P37231); experiment: biochemical; set-up: Cerep Bioprint off-target panel, ligand binding inhibition
T1 construct: gene PPARG
T1 sequence (P37231 1-505): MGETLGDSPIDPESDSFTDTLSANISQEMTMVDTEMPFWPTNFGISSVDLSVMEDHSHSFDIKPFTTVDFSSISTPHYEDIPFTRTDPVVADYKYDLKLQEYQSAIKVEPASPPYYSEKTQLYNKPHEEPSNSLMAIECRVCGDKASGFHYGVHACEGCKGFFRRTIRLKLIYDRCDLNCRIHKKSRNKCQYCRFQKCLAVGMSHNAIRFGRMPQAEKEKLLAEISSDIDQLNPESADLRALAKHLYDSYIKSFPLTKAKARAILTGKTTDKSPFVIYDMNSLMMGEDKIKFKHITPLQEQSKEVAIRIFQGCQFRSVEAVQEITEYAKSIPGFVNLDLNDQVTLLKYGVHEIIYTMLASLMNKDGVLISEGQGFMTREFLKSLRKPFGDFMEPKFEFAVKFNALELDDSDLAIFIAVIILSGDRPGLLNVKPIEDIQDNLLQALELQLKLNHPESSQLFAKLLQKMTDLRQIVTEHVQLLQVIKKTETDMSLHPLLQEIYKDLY
Description: (§1) To discover a potent and selective BDK inhibitor, a subset of the Pfizer compound collection was screened. […] Off target activity was assessed in both CEREP and kinase panels (Supplementary Tables 2, 3).

[1] = molecular target: T2, Dual-specificity tyrosine-(Y)-phosphorylation regulated kinase 2 (DYRK) (Homo sapiens, UniProt Q92630); set-up: Invitrogen Lantha screen kinase binding, per cent inhibition of binding; settings: 10 µM, binder
T2 construct: gene DYRK2
Description: as §1

MYLK = MYLK (Homo sapiens, UniProt Q15746); set-up: Invitrogen Lantha screen kinase binding, per cent inhibition of binding; settings: 10 µM, binder
Description: as §1

CAMKK2 = CAMKK2 (Homo sapiens, UniProt Q96RR4); set-up: Invitrogen Lantha screen kinase binding, per cent inhibition of binding; settings: 10 µM, binder
Description: as §1

TGFBR2 = TGFBR2 (Homo sapiens, UniProt P37173); set-up: Invitrogen Lantha screen kinase binding, per cent inhibition of binding; settings: 10 µM, binder
Description: as §1

MAPK15 = MAPK15 (Homo sapiens, UniProt Q8TD08); set-up: Invitrogen Lantha screen kinase binding, per cent inhibition of binding; settings: 10 µM, binder
Description: as §1

[2] = molecular target: T3, Protein kinase, AMP-activated, alpha 1 beta 1 gamma 2 complex (Homo sapiens, UniProt Q13131+Q9UGJ0+Q9Y478); set-up: Invitrogen Lantha screen kinase binding, per cent inhibition of binding; settings: 10 µM, binder
T3 construct: gene PRKAA1
Description: as §1

[3] = molecular target: TGF-beta activated kinase 1/MAP3K7 binding protein 1 (MAP3K7IP1) (Homo sapiens, UniProt O43318); set-up: Invitrogen Lantha screen kinase binding, per cent inhibition of binding; settings: 10 µM, binder
Description: as §1

TTK = TTK (Homo sapiens, UniProt P33981); set-up: Invitrogen Lantha screen kinase binding, per cent inhibition of binding; settings: 10 µM, binder
Description: as §1

[4] = molecular target: T4, Serotonin 5-HT1b Receptor (Homo sapiens, UniProt P28222); set-up: Cerep Bioprint off-target panel, functional receptor agonism or antagonism; settings: agonist
T4 construct: gene HTR1B
Procedure, shortened: (§2)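 Compounds from a BDK inhibitor screen were counter-screened for off-target activity, with receptors in a CEREP panel and ABL1 in a kinase panel.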

Neurokinin Nk1 = molecular target: T5, Neurokinin Nk1 (Homo sapiens, UniProt P25103); set-up: Cerep Bioprint off-target panel, functional receptor agonism or antagonism; settings: agonist
T5 construct: gene TACR1
Procedure, shortened: as §2

Delta Opioid Receptor = molecular target: T6, Delta Opioid Receptor (Homo sapiens, UniProt P41143); set-up: Cerep Bioprint off-target panel, functional receptor agonism or antagonism; settings: agonist
T6 construct: gene OPRD1
Procedure, shortened: as §2

[5] = molecular target: T7, Adrenergic Beta 1 Adrenoceptor (Homo sapiens, UniProt P08588); set-up: Cerep Bioprint off-target panel, functional receptor agonism or antagonism
T7 construct: gene ADRB1
Procedure, shortened: as §2

Kappa Opioid = molecular target: T8, Kappa Opioid (Homo sapiens, UniProt P41145); set-up: Cerep Bioprint off-target panel, functional receptor agonism or antagonism; settings: agonist
T8 construct: gene OPRK1
Procedure, shortened: as §2

Vasopressin 1a = molecular target: T9, Vasopressin 1a (Homo sapiens, UniProt P37288); set-up: Cerep Bioprint off-target panel, functional receptor agonism or antagonism; settings: agonist
T9 construct: gene AVPR1A
Procedure, shortened: as §2

Muscarinic 2 = molecular target: T10, Muscarinic 2 (Homo sapiens, UniProt P08172); set-up: Cerep Bioprint off-target panel, functional receptor agonism or antagonism
T10 construct: gene CHRM2
T10 sequence (P08172 1-466): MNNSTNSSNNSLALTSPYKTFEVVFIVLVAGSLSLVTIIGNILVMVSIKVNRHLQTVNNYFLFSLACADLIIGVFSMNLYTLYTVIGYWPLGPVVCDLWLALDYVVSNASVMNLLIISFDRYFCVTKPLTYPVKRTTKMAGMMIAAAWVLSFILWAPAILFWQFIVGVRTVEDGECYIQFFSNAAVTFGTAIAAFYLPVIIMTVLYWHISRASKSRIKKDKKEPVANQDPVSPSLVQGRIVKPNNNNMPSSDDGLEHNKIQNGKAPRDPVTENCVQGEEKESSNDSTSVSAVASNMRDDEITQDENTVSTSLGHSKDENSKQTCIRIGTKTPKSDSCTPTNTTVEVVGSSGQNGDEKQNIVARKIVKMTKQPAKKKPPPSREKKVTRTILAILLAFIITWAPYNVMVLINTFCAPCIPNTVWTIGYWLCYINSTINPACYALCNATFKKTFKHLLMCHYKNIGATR
Procedure, shortened: as §2

Serotonin 5-HT2b = molecular target: T11, Serotonin 5-HT2b (Homo sapiens, UniProt P41595); set-up: Cerep Bioprint off-target panel, functional receptor agonism or antagonism; settings: agonist
T11 construct: gene HTR2B
Procedure, shortened: as §2

Dopamine 2S = molecular target: T12, Dopamine 2S (Homo sapiens, UniProt P14416); set-up: Cerep Bioprint off-target panel, functional receptor agonism or antagonism
T12 construct: gene DRD2; short isoform (2S)
Procedure, shortened: as §2

T12 sequence (P14416 whole entry, canonical isoform): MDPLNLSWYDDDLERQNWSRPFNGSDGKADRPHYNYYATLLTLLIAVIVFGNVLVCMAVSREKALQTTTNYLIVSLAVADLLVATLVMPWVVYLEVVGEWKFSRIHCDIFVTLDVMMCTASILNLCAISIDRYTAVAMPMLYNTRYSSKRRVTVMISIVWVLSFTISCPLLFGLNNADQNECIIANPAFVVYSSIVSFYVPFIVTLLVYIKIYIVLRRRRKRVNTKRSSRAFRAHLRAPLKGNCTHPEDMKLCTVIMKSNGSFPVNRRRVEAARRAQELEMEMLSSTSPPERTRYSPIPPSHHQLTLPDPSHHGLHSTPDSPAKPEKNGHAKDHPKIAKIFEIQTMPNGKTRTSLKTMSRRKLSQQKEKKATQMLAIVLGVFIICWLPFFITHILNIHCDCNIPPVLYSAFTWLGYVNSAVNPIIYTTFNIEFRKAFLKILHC
T7 sequence (P08588 whole entry): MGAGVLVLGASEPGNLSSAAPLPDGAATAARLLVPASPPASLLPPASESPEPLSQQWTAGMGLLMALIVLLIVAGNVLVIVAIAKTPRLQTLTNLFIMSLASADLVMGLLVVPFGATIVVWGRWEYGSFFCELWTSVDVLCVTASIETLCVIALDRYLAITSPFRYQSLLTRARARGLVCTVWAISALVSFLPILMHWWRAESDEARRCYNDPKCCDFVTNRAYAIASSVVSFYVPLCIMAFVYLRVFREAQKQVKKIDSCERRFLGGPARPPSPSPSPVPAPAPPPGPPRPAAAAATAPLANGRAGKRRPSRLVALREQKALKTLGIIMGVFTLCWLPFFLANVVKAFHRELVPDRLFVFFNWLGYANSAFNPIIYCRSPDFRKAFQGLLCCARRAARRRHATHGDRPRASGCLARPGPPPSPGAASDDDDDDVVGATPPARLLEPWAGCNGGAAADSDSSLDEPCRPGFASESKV
T2 sequence (Q92630 whole entry): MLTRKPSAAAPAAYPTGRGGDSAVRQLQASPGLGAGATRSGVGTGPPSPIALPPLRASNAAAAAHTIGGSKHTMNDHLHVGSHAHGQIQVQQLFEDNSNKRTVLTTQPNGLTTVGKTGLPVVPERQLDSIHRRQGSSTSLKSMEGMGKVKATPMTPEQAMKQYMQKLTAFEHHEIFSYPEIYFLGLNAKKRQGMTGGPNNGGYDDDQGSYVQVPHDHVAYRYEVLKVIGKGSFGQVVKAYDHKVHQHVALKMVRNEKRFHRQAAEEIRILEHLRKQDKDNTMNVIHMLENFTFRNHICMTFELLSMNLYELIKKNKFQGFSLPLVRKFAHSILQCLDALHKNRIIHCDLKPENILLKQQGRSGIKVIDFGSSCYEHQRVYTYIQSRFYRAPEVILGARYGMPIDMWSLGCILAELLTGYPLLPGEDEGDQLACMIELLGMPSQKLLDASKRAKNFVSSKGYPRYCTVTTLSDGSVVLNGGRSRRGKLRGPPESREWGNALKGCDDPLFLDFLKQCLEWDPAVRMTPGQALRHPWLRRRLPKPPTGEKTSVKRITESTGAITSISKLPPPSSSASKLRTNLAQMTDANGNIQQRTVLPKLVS
T3 sequence (Q13131 whole entry): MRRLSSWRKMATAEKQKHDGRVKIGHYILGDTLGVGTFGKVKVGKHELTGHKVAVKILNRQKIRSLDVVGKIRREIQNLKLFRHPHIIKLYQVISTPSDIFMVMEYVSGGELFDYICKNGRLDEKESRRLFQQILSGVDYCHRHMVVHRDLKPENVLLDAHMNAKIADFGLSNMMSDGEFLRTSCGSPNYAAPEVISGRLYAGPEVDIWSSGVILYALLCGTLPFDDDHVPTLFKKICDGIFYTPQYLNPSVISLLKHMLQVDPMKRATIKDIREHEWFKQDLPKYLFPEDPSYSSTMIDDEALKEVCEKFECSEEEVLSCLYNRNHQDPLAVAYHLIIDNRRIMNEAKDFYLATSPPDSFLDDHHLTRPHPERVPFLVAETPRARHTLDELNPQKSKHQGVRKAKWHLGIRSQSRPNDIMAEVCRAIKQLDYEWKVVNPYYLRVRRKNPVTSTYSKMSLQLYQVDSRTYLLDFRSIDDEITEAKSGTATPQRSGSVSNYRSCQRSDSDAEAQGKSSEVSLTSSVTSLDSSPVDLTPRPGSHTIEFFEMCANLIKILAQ
T3 sequence (Q9UGJ0 whole entry): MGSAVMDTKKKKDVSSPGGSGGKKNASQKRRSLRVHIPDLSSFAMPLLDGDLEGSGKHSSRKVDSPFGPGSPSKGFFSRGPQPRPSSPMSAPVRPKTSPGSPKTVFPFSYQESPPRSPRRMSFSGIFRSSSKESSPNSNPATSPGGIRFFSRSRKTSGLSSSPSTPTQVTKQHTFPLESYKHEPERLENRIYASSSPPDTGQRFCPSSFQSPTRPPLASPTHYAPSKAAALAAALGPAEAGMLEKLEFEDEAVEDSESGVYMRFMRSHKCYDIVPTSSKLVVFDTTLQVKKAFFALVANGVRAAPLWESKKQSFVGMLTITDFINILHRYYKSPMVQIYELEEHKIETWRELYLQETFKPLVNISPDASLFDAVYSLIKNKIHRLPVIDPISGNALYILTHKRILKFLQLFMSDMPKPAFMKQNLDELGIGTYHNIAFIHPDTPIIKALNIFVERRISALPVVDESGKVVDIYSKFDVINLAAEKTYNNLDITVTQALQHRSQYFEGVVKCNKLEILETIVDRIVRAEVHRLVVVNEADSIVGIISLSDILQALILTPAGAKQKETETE
T3 sequence (Q9Y478 whole entry): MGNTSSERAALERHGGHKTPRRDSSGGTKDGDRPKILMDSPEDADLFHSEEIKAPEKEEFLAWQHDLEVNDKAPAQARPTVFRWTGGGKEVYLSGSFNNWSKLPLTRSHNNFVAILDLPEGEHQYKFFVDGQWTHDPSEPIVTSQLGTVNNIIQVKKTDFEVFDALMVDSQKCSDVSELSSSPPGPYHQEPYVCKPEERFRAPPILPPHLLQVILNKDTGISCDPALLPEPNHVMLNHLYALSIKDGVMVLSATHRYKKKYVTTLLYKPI
T5 sequence (P25103 whole entry): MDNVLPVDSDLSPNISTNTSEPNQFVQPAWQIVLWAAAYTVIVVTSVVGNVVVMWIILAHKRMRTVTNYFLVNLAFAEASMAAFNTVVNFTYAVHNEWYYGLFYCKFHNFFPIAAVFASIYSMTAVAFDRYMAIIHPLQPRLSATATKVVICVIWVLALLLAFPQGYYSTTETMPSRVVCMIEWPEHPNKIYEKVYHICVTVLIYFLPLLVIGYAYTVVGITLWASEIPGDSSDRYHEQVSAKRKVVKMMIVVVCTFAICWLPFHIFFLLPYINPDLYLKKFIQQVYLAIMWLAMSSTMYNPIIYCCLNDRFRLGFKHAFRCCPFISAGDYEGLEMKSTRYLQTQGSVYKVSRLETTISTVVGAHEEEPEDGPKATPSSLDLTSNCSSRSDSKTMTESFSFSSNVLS
T4 sequence (P28222 whole entry): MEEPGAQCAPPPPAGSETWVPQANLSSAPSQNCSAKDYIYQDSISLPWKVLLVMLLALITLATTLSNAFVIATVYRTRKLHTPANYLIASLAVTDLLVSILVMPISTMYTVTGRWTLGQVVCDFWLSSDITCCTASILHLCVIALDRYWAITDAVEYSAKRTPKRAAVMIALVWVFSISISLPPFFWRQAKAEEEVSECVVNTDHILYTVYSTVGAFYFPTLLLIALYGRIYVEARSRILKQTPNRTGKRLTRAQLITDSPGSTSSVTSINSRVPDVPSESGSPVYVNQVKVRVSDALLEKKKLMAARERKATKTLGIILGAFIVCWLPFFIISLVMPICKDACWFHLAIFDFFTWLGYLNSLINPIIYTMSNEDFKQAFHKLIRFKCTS
Sequence of TGFBR2 (P37173 whole entry): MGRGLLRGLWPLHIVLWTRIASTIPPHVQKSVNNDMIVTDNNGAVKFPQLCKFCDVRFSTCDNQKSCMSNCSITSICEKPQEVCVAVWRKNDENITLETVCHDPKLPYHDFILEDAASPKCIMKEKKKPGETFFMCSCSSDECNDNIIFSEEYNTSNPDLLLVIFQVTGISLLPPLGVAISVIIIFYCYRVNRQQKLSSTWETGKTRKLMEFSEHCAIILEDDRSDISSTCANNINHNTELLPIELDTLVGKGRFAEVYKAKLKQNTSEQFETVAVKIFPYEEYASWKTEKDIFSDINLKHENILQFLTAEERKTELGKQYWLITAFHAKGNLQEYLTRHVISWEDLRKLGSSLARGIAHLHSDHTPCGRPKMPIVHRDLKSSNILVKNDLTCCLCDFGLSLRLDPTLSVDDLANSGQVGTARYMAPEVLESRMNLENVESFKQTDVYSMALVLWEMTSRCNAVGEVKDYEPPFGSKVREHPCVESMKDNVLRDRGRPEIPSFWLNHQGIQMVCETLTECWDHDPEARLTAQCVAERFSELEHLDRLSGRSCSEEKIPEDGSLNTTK
T8 sequence (P41145 whole entry): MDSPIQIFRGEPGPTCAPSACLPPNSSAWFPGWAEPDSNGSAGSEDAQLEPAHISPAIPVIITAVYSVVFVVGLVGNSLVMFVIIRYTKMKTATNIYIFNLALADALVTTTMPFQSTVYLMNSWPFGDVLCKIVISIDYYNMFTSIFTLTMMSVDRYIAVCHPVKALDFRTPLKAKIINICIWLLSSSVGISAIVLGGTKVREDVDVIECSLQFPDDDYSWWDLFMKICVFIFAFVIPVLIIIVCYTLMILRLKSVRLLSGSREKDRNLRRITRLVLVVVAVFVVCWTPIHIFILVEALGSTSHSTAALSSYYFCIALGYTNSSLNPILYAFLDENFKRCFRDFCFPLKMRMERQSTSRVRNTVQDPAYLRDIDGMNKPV

O=C(O)c1sc2cc(F)sc2c1Cl [PF-07208254, 3-chloro-5-fluorothieno[3,2-b]thiophene-2-carboxylic acid]
IC50 (PPAR-gamma): 86 µM | Lantha Binding % Inhibition PF-07208254 [1]: 29.2% | Lantha Binding % Inhibition PF-07208254 (MYLK): 3.3% | Lantha Binding % Inhibition PF-07208254 (CAMKK2): 7.8% | Lantha Binding % Inhibition PF-07208254 (TGFBR2): 15.9% | Lantha Binding % Inhibition PF-07208254 (MAPK15): 18.3% | Lantha Binding % Inhibition PF-07208254 [2]: 5.9% | Lantha Binding % Inhibition PF-07208254 [3]: 2.6% | Lantha Binding % Inhibition PF-07208254 (TTK): 16.2% | % (agonism) PF-07208254 ([4]; 100 µM): 39% | % (agonism) PF-07208254 (Neurokinin Nk1; 100 µM): -3% | % (agonism) PF-07208254 (Delta Opioid Receptor; 100 µM): -2% | % (agonism) PF-07208254 ([5]; 100 µM, agonist): 2% | % Inhibition (antagonism) PF-07208254 ([5]; 100 µM, antagonist): 8% | % (agonism) PF-07208254 (Kappa Opioid; 100 µM): -3% | % (agonism) PF-07208254 (Vasopressin 1a; 100 µM): 16% | % (agonism) PF-07208254 (Muscarinic 2; 100 µM, agonist): 39% | % Inhibition (antagonism) PF-07208254 (Muscarinic 2; 100 µM, antagonist): -7% | % (agonism) PF-07208254 (Serotonin 5-HT2b; 100 µM): -5% | % (agonism) PF-07208254 (Dopamine 2S; 100 µM, agonist): -29% | % Inhibition (antagonism) PF-07208254 (Dopamine 2S; 100 µM, antagonist): -7%

CCC1(COc2ccc(-c3csc(-c4ccccc4C(=O)O)n3)cn2)CC1 [PF-07247685, 2-(4-{6-[(1-ethylcyclopropyl)methoxy]pyridin-3-yl}-1,3-thiazol-2-yl)benzoic acid]
IC50 (PPAR-gamma; read-out: IC50 binding PF-07247685): 50 µM | Lantha Binding % Inhibition PF-07247685 [1]: 1.9% | Lantha Binding % Inhibition PF-07247685 (MYLK): 1.3% | Lantha Binding % Inhibition PF-07247685 (CAMKK2): 1.8% | Lantha Binding % Inhibition PF-07247685 (TGFBR2): 15.1% | Lantha Binding % Inhibition PF-07247685 (MAPK15): 2.4% | Lantha Binding % Inhibition PF-07247685 [2]: 0.5% | Lantha Binding % Inhibition PF-07247685 [3]: -1.9% | Lantha Binding % Inhibition PF-07247685 (TTK): 3.6% | % (agonism) PF-07247685 ([4]; 10 µM): 34% | % (agonism) PF-07247685 (Neurokinin Nk1; 10 µM): -4% | % (agonism) PF-07247685 (Delta Opioid Receptor; 10 µM): -1% | % (agonism) PF-07247685 ([5]; 10 µM, agonist): 6% | % Inhibition (antagonism) PF-07247685 ([5]; 10 µM, antagonist): 27% | % (agonism) PF-07247685 (Kappa Opioid; 10 µM): -7% | % (agonism) PF-07247685 (Vasopressin 1a; 10 µM): -1% | % (agonism) PF-07247685 (Muscarinic 2; 10 µM, agonist): 3% | % Inhibition (antagonism) PF-07247685 (Muscarinic 2; 10 µM, antagonist): 2% | % (agonism) PF-07247685 (Serotonin 5-HT2b; 10 µM): -5% | % (agonism) PF-07247685 (Dopamine 2S; 10 µM, agonist): -17% | % Inhibition (antagonism) PF-07247685 (Dopamine 2S; 10 µM, antagonist): -7%

— paper PMC10412597, “Small molecule branched-chain ketoacid dehydrogenase kinase (BDK) inhibitors with opposing effects on BDK protein levels” (Nature Communications, 2023)
